# Measurements: ChEMBL document CHEMBL3091457, “Design, synthesis, and biological activities of novel hexahydropyrazino[1,2-a]indole derivatives as potent inhibitors of apoptosis (IAP) proteins antagonists with improved membrane permeability across MDR1 expressing cells” (Bioorg Med Chem, 2013)
# Key:
# [1] = biological target: T1, MDR1 (ABCB1, P-glycoprotein) (Homo sapiens, UniProt P08183); assay: Activity at human MDR1 expressed in pig LLC-PK1 cells assessed as apparent permeability at 10 umol/L after 2 hrs by LC-MS/MS analysis; type: ADME, cell-based
# T1 sequence (P08183 whole entry): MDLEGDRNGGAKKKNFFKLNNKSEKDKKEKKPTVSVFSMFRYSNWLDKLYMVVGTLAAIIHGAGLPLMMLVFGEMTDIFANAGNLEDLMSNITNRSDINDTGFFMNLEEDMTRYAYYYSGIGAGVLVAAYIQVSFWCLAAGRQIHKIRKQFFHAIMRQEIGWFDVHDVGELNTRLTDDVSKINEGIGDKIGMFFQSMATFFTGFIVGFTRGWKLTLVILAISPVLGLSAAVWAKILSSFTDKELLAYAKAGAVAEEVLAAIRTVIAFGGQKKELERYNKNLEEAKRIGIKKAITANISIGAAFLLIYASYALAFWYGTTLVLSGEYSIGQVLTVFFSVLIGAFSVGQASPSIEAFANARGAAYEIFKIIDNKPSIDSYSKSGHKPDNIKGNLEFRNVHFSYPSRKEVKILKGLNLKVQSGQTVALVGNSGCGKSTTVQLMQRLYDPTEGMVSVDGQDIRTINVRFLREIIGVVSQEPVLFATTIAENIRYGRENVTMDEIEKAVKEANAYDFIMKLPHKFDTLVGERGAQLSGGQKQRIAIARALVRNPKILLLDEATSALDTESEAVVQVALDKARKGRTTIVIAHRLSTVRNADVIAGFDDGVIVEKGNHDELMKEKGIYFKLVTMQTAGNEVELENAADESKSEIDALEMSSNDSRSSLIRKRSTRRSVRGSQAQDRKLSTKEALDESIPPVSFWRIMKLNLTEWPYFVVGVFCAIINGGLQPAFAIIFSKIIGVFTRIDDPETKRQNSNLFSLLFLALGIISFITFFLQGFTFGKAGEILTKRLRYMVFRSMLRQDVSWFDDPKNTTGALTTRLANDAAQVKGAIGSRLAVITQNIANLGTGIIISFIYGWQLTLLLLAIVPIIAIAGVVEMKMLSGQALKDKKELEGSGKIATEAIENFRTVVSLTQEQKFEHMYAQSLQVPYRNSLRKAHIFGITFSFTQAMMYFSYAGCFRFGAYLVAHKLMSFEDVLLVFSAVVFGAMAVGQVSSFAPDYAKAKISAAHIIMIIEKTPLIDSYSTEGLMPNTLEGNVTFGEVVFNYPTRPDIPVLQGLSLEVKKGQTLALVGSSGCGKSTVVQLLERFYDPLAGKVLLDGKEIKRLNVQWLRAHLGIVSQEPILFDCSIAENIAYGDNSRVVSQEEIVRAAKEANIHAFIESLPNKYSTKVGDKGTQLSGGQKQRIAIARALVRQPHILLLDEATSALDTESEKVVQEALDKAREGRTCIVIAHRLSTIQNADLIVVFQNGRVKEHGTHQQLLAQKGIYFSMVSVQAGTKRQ
# MDA-MB-231 = assay: Growth inhibition of human MDA-MB-231 cells after 72 hrs by CellTiter-Glo assay; type: functional; settings: MDA-MB-231, 72 h
# [2] = biological target: T1, MDR1 (ABCB1, P-glycoprotein); assay: Activity at human MDR1 expressed in pig LLC-PK1 cells assessed as efflux ratio of permeability from basolateral to apical side over apical to basolateral side at 10 umol/L after 2 hrs by LC-MS/MS analysis; type: ADME, cell-based
"Papp at 2 h, 10 µM [1] [×10⁻⁶ cm/s]",GI50 (MDA-MB-231) [nM],"efflux ratio at 2 h, 10 µM [2]",SMILES
0.5,5.7,–,CN[C@@H](C)C(=O)N[C@H](C(=O)N1C[C@H]2CCCN2C[C@H]1C(=O)N[C@@H]1CCOc2ccccc21)C1CCCCC1
4.1,15,–,CN[C@@H](C)C(=O)N[C@H](C(=O)N1C[C@H]2Cc3ccccc3N2C[C@H]1C(=O)N[C@@H]1CCOc2ccccc21)C1CCCCC1
1.4,1.9,–,CC[C@H](NC)C(=O)N[C@H](C(=O)N1C[C@@H]2Cc3cc(C#N)ccc3N2C[C@H]1C(=O)N[C@@H]1CCOc2ccccc21)C1CCCCC1
2.5,1.8,–,CC[C@H](NC)C(=O)N[C@H](C(=O)N1C[C@@H]2Cc3ccccc3N2C[C@H]1C(=O)N[C@@H]1CCOc2ccccc21)C1CCCCC1
0.3,13,–,CN[C@@H](C)C(=O)N[C@H](C(=O)N1C[C@@H]2CCCN2C[C@H]1C(=O)N[C@@H]1CCOc2ccccc21)C1CCCCC1
6.4,–,–,CC[C@H](NC)C(=O)N[C@H](C(=O)N1C[C@@H]2Cc3cc(Cl)ccc3N2C[C@H]1C(=O)N[C@@H]1CCOc2ccccc21)C1CCCCC1
8.6,4.4,–,CC[C@H](NC)C(=O)N[C@H](C(=O)N1C[C@H]2Cc3ccccc3N2C[C@H]1C(=O)N[C@@H]1CCOc2ccccc21)C1CCCCC1
7.5,5.9,–,CC[C@H](NC)C(=O)N[C@H](C(=O)N1C[C@@H]2Cc3cc(Cl)cc(Cl)c3N2C[C@H]1C(=O)N[C@@H]1CCOc2ccccc21)C1CCCCC1
0.1,–,24,CCO[C@@H]1C[C@@H]2CN(C(=O)[C@@H](NC(=O)[C@H](C)NC)C3CCC(F)(F)CC3)[C@H](C(=O)N[C@@H]3CCOc4ccccc43)CN2C1
–,4.6,–,CC[C@H](NC)C(=O)N[C@H](C(=O)N1C[C@H]2CCCN2C[C@H]1C(=O)N[C@@H]1CCOc2ccccc21)C1CCCCC1
